Reference: ChEMBL document CHEMBL1201862, “PubChem BioAssay data set” (2004)
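1) Cells in 96-well plates. 2) Compound, 48 h, 5 concentrations. 3) Linear interpolation between surrounding doses. 4) Unreached endpoint = highest concentration. GI50 = concentration required for 50% inhibition of growth.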 The source made the active and inactive calls. No stated cut-off is given here; in the data, active = GI50 up to about 1.1 µM and inactive = higher.

How the values were obtained:
Test in all cases: NCI tumour cell line growth inhibition, 48 h
MDA-MB-435 = test system: MDA-MB-435
NCI-H226 = test system: NCI-H226
U-251 = test system: U-251
SNB-75 = test system: SNB-75
SK-MEL-5 = test system: SK-MEL-5
RXF 393 = test system: RXF 393
UACC-62 = test system: UACC-62
IGROV-1 = test system: IGROV-1
SK-MEL-28 = test system: SK-MEL-28
786-0 = test system: 786-0
SF-539 = test system: SF-539
COLO 205 = test system: COLO 205
UO-31 = test system: UO-31
OVCAR-4 = test system: OVCAR-4
HCT-15 = test system: HCT-15
SNB-19 = test system: SNB-19
SK-OV-3 = test system: SK-OV-3
PC-3 = test system: PC-3
ACHN = test system: ACHN
Malme-3M = test system: Malme-3M

| Structure (SMILES) | GI50 (MDA-MB-435) | GI50 (NCI-H226) | GI50 (U-251) | GI50 (SNB-75) | GI50 (SK-MEL-5) | GI50 (RXF 393) | GI50 (UACC-62) | GI50 (IGROV-1) | GI50 (SK-MEL-28) | GI50 (786-0) | GI50 (SF-539) | GI50 (COLO 205) | GI50 (UO-31) | GI50 (OVCAR-4) | GI50 (HCT-15) | GI50 (SNB-19) | GI50 (SK-OV-3) | GI50 (PC-3) | GI50 (ACHN) | GI50 (Malme-3M) |
| --- | --- | --- | --- | --- | --- | --- | --- | --- | --- | --- | --- | --- | --- | --- | --- | --- | --- | --- | --- | --- |
| CCC1=C(c2ccc(OC)cc2)CC[C@]2(CCNC2=O)[C@@H]1C | 19.6 µM (inactive) | 37.9 µM (inactive) | 29.9 µM (inactive) | 27.4 µM (inactive) | 16.8 µM (inactive) | 55.2 µM (inactive) | 24.4 µM (inactive) | 40.3 µM (inactive) | 30.5 µM (inactive) | 42.5 µM (inactive) | 28.2 µM (inactive) | 14.4 µM (inactive) | 21.4 µM (inactive) | 22 µM (inactive) | 28.7 µM | 34.6 µM (inactive) | 45.8 µM (inactive) | 26.4 µM (inactive) | 25.6 µM (inactive) | 25.8 µM (inactive) |
| COc1ccc(OC)c(CCc2cc(OC)ccc2OC)c1 | 0.174 µM (active) | 5.33 µM (inactive) | 4.81 µM (inactive) | 2.41 µM (inactive) | 0.324 µM (active) | 2.58 µM (inactive) | 2.63 µM (inactive) | 1.69 µM (inactive) | 3.28 µM (inactive) | 3.17 µM (inactive) | 2.07 µM (inactive) | 1.29 µM (inactive) | 5.55 µM (inactive) | > 10 µM (inactive) | 0.34 µM | 4.8 µM (inactive) | 4.33 µM (inactive) | 2.3 µM (inactive) | > 6.93 µM (inactive) | 0.369 µM (active) |
| CC(C)[Si]1(C(C)C)OCC2OC(N3C(=O)NC(=O)C[C@@H]3C(O)c3ccccc3)CC2O[Si](C(C)C)(C(C)C)O1 (stereo partly drawn) | 5.5 µM (inactive) | 2.15 µM (inactive) | 3.24 µM (inactive) | 4.54 µM (inactive) | 11.3 µM (inactive) | 5.27 µM (inactive) | 8.91 µM (inactive) | 4.74 µM (inactive) | 4.51 µM (inactive) | 5.93 µM (inactive) | 17 µM (inactive) | 9.86 µM (inactive) | 10.8 µM (inactive) | 4.51 µM (inactive) | 5.42 µM | 9.93 µM (inactive) | 5.71 µM (inactive) | 4.3 µM (inactive) | 7.11 µM (inactive) | 5.41 µM (inactive) |
| CC(=O)C(=C(I)I)c1ccccc1 | 14.6 µM (inactive) | 11.5 µM (inactive) | 17.5 µM (inactive) |  | 15.1 µM (inactive) | 20 µM (inactive) | 25.5 µM (inactive) | 26.1 µM (inactive) | 19.5 µM (inactive) | 19.7 µM (inactive) | 21.1 µM (inactive) | 15.5 µM (inactive) | 19.2 µM (inactive) | 16.1 µM (inactive) | 29.3 µM | 18.5 µM (inactive) | 41.9 µM (inactive) | 31.5 µM (inactive) | 18.3 µM (inactive) | 12.3 µM (inactive) |
| COC(=O)c1c(O)ccc2c1c1c(n2Cc2cc(OC)cc(OC)c2)C(=O)c2ccccc2C1 | 10.9 µM (inactive) | 93.3 µM (inactive) | 47.8 µM (inactive) | 4.7 µM (inactive) | 34.3 µM (inactive) | 19.7 µM (inactive) | 49.2 µM (inactive) | 30.3 µM (inactive) | 16.1 µM (inactive) | 92 µM (inactive) | 50.6 µM (inactive) | 13.2 µM (inactive) | 63.4 µM (inactive) | 11.2 µM (inactive) | 32.1 µM | > 100 µM (inactive) | 29 µM (inactive) | 16.9 µM (inactive) |  | 68.5 µM (inactive) |
